Assay results: article PMC8162438, “Cancer cell-selective modulation of mitochondrial respiration and metabolism by potent organogold(III) dithiocarbamates” (Chemical Science, 2020)

Tested on: MDA-MB-231
Test: Apoptosis analysis, Annexin V-FITC/PI FACS
Assay type: cell-based
Conditions: MDA-MB-231, 10 μM, 4 h, extrapolated from Fig. 10B
Excerpt: Apoptosis is a common cell death pathway for chemotherapeutics which can be characterized by distinct morphological features and biochemical mechanisms.[88,89] Apoptosis occurs normally in healthy cells to maintain a healthy population of cells during aging or development of tissues. Some transition metal-based drugs can trigger apoptosis due to […] of p53 dependant pathway (a tumour suppressor gene).[90,91] Populations of apoptotic cells can be determined by containing cells with Annexin V and PI.[92,93] Cells undergoing apoptosis contain ample amount of phosphatidylserine (PS) which can be bound by Annexin V. The Annexin is then labelled with FITC, a green fluorogenic dye which can be visualized by fluorescence activated cell sorting (FACS). PI is used to stain damaged DNA to distinguish apoptotic from necrotic cells. […]
media. […] The plates were read using a Genios plate reader (λ = 570 nm). […]
Cell Viability of 1a-1e and 2a-2e (Suspended Cell Lines). The cell viability of 2a was determined in K562. […]
10% CO 2. […] To each designated well was then added 20 µL of CellTiter-Glo solution and orbitally shaken for 5 minutes and the luminescence (1000 ms integration and 150 ms gain) acquired on a Genios plate reader. […]

C[N+](C)=C1[S][Au-2]2([S]1)[c]1ccccc1Cc1cccc[n+]12.F[P-](F)(F)(F)(F)F (stereo not shown) [2a]
Increase in apoptotic cells in comparison to control: 36%
